Literature values, collected in PMC8508678, “Novel P2X7 Antagonist Ameliorates the Early Phase of ALS Disease and Decreases Inflammation and Autophagy in SOD1-G93A Mouse Model” (International Journal of Molecular Sciences, 2021).
Like-named read-outs stand apart in the source and are kept apart here.

Assays:
SOD1-G93A mice [1] = system: SOD1-G93A mice; set-up: key to Motor behavior / Survival: The symbol ↑ refers to upregulation; ↓ to downregulation; = indicates no change with respect to the vehicle-treated SOD1-G93A mice
SOD1-G93A mice [2] = system: SOD1-G93A mice; set-up: key to NF-κB / NOX2 / P2X7 / ARG1 / CD68 / GFAP / LC3B-II: The symbol ↑ refers to upregulation; ↓ to downregulation; = indicates no change with respect to the vehicle-treated SOD1-G93A mice
SOD1-G93A mice [3] = system: SOD1-G93A mice; set-up: key to Motor Neuron loss: The symbol ↑ refers to upregulation; ↓ to downregulation; = indicates no change with respect to the vehicle-treated SOD1-G93A mice
[4] = ALS mice, four times per week starting at post-natal day 60 ref 41
[5] = SOD1-G93A mice, vs vehicle ref 31
[6] = SOD1-G93A mice, vs vehicle ref 28, 29

O=C(NCC1(N2CCN(c3ccccc3)CC2)CCOCC1)c1cccnc1Sc1ccccc1 [JNJ-47965567]
disease onset, body weight loss and motor parameters (SOD1-G93A mice [1]; [4]): able to delay disease onset, reduce body weight loss, and improve the motor parameters | survival or motor neuron number (SOD1-G93A mice [1]; [4]): without affecting | survival, disease progression, molecular and cellular parameters of ALS (SOD1-G93A mice [1]; SOD1-G93A mice, three times per week from the early symptomatic phase ref 32): totally failed

C[C@H](N=C(NC#N)Nc1cccc2ncccc12)c1ccccc1 [A804598]
amelioration of disease progression (SOD1-G93A mice [1]; SOD1-G93A mice ref 31): failed | Motor behavior (SOD1-G93A mice [1]; [5]): = | Survival (SOD1-G93A mice [1]; [5]): = | P2X7 expression levels in the spinal cord (SOD1-G93A mice [2]; SOD1-G93A mice ref 31): failed to affect | autophagic substrate p62 accumulating in vivo (SOD1-G93A mice [2]; SOD1-G93A mice ref 31): decreases | motor neuron loss or astrogliosis and microgliosis in the spinal cord (SOD1-G93A mice [2]; SOD1-G93A mice ref 31): neither A804598 nor AXX13 treatments affected | ARG1 (SOD1-G93A mice [2]; [5]): = | CD68 (SOD1-G93A mice [2]; [5]): = | GFAP (SOD1-G93A mice [2]; [5]): = | LC3B-II (SOD1-G93A mice [2]; [5]): = | NF-κB (SOD1-G93A mice [2]; [5]): = | NOX2 (SOD1-G93A mice [2]; [5]): = | P2X7 (SOD1-G93A mice [2]; [5]): = | IL-1β mRNA expression (SOD1-G93A mice [2]; SOD1-G93A mice, only this inflammatory marker affected ref 31): downregulated | Motor Neuron loss (SOD1-G93A mice [3]; [5]): =

CCOc1ccc(Nc2ccc(/C(=C3C=C/C(=[N+](/CC)Cc4cccc(S(=O)(=O)[O-])c4)C=C/3C)c3ccc(N(CC)Cc4cccc(S(=O)(=O)O)c4)cc3C)cc2)cc1 [BBG, brilliant blue G]
disease onset (SOD1-G93A mice [1]; ALS mice, modest improvement in general conditions and motor performance ref 29): induces a delay of disease onset | Survival (SOD1-G93A mice [1]; [6]): = | microgliosis (SOD1-G93A mice [2]; SOD1-G93A mice ref 29): reduces | GFAP (SOD1-G93A mice [2]; [6]): = | P2X7 (SOD1-G93A mice [2]; [6]): = | motor neuron survival in the lumbar spinal cord (SOD1-G93A mice [3]; SOD1-G93A mice ref 29): enhances
